Literature values as cited in patent US20200289552A1, “SOLID COMPOSITION COMPRISING IODINE AGENT AND SODIUM CHLORIDE HAVING IMPROVED WATER SOLUBILITY, AND ANTIVIRAL AND ANTIMICROBIAL COMPOSITION FOR EYE, ORAL CAVITY, NASAL CAVITY OR INHALATION CONTAINING AQUEOUS SOLUTION THEREOF” (FLUCHEM LTD, priority 2017, published 2020).

Columns and labels:
[1] = U.S. patent Ser. No. 04/950,653
[2] = stored sealed, room temperature and 65° C., for 3 years
[3] = system: highly pathogenic H5N1 and low pathogenic H5N3, H7N7, and H9N7

povidone iodine
time to dissolve in water [1]: 45 min
effective iodine loss [2]: about 0.5%
time to inactivate viruses below a detection limit [3]: less than 10 seconds
